Assay results published in patent US20230312524A1, “ALPHA1A-ADRENERGIC RECEPTOR AGONISTS AND METHODS OF USE” (CuraSen Therapeutics, Inc., priority 2020, published 2023).
Read-outs that look alike come from different tables or passages of the source.

Molecular target: T1, α1A-ARS (Homo sapiens, UniProt P35348)
T1 sequence (P35348 1-466): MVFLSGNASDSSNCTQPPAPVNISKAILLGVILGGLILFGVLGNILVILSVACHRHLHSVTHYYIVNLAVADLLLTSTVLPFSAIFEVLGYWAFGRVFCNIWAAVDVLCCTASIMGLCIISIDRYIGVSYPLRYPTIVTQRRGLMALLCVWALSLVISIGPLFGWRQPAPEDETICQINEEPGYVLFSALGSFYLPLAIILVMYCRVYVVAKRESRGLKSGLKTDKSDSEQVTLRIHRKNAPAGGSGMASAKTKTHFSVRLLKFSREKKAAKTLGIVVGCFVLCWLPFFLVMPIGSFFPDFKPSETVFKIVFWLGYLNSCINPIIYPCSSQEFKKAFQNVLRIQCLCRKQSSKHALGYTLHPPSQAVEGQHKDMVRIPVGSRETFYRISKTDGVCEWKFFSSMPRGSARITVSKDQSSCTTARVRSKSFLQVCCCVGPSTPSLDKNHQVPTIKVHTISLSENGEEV
Assay: Calcium flux assay (Calcium 6 dye) in cells expressing an α1-AR
Format: cell-based
Details: for Emax: read-out: Average Emax
Source text: Calcium flux experimental design: alpha-1 adrenergic receptors (α1-ARs) couple to Gq proteins, which results in downstream activation of phospholipase C and release of calcium from intracellular stores. Intracellular calcium increase upon α1-AR activation can be detected by Calcium 6 dye.
Cell preparation: cells expressing an α1-AR were washed in warmed phosphate-buffered saline to remove medium and harvested using versene (Caisson Labs, catalog #EDL01).
Media was removed from cells by tapping plates upside-down on absorbent wipes, followed by 15 second upside-down 50×g centrifugation, again on absorbent wipes. 12 μL cell dye solution was added to cells using a reagent dispenser (Integra viaFILL) and cells were incubated for 90 minutes at 37° C., 5% CO2.
Compound preparation: candidate alpha-adrenergic compounds, dissolved to 10 mM in DMSO, were diluted in_assay buffer (HBSS/H-EPES containing 2 mM CaCl2 and 2 mM probenecid sodium salt). […] On all assay plates, vehicle (DMSO) and positive control (10 μM epinephrine) conditions were included on the plate, as well as a dose-response curve of epinephrine. […] 384 well compound plates were centrifuged briefly at 250×g, sealed (Axygen PCR-SP) and incubated at 37° C. until the 90 minute cell dye incubation was complete.
Calcium 6 stained cells and 384 well compound plates were loaded onto the Flexstation and incubated on the machine for 5 minutes before initiating the assay.
For each assay well, baseline Calcium 6 fluorescence was detected for 18 seconds prior to 12 μL compound addition at 12 μL per second. Changes in Calcium 6 fluorescence were detected for a further 22 seconds, for a total read time of 40 seconds. All detection was performed with medium gain sensitivity, bottom read, with 6 flashes per read.
Data analysis: for calcium flux, analysis of maximum change from baseline over the 40-second read time was determined using Softmax Pro and data was exported as raw text files. Potency estimates (EC50) were derived from dose response curves (maximum change from baseline versus the log concentration of test compound) fit by four-parameter nonlinear regression using Graphpad Prism. Efficacy was determined by comparing the magnitude of the test compound signal window (fitted curve max−min) with the signal window of the full agonist control, epinephrine. […] All experiments were repeated a minimum of three times, with the average (mean) potency and maximum effect relative to the within-plate full agonist dose-response comparator reported.

[1] = calcium flux, α1A-AR, mean of at least three experiments, read-out: Average PEC50
[2] = calcium flux, α1A-AR, maximum effect relative to full agonist epinephrine

Row | Structure (SMILES) | EC50 [1] [µM] | Emax [%] | Emax [2] [%] | EC50 [µM]
1 | FC(F)(F)Cc1cc(Cl)ccc1CC1=NCCN1 [Compound 90] | > 1 | 21 to 60 |  | 
2 | FC(F)(F)Oc1ccc(CC2=NCCN2)c(Cl)c1 [Compound 135] | 0.01 to 0.977 | 21 to 60 |  | 
3 | Cc1c(CC2=NCCN2)cc(Cl)c2nn(C)cc12 [Compound 106] | 0.01 to 0.977 | 21 to 60 |  | 
4 | Cc1c(CC2=NCCN2)cc(Cl)c2c1ccn2C [Compound 101] | < 0.00977 | > 61 |  | 
5 | FC(F)(F)c1coc2c(CC3=NCCN3)cccc12 [Compound 92] | > 1 | 21 to 60 |  | 
6 | Clc1ccc(CC2=NCCN2)c(-c2cccs2)c1 [Compound 28] | < 0.00977 |  | > 61 | 
7 | COc1ccc(CC2=NCCN2)c(C(F)(F)F)c1 [Compound 81] | 0.01 to 0.977 | > 61 |  | 
8 | FC(F)c1ccc(CC2=NCCN2)c(Cl)c1 [Compound 138] | 0.01 to 0.977 | > 61 |  | 
9 | c1cc(CC2=NCCN2)c2[nH]ccc2c1 [Compound 50] | 0.01 to 0.977 | 21 to 60 |  | 
10 | Cc1c(CC2=NCCN2)ccc(Cl)c1-c1nccs1 [Compound 36] | > 1 |  | < 20 | 
11 | Clc1ccc(CC2=NCCN2)cc1-n1cccn1 [Compound 23] | 0.01 to 0.977 |  | 21 to 60 | 
12 | FC(F)(F)c1ccc(CC2=NCCN2)c(-c2ccccc2)c1 [Compound 75] | 0.01 to 0.977 |  | > 61 | 
13 | Cc1coc2c(Cl)cc(CC3=NCCN3)c(C)c12 [Compound 107] | < 0.00977 | 21 to 60 |  | 
14 | CCc1c(Cl)cccc1CC1=NCCN1 [Compound 99] | > 1 | 21 to 60 |  | 
15 | CCc1cc(Cl)ccc1CC1=NCCN1 [Compound 67] | 0.01 to 0.977 | > 61 |  | 
16 | Cc1cccn1-c1cc(Cl)ccc1CC1=NCCN1 [Compound 116] | 0.01 to 0.977 |  | > 61 | 
17 | Clc1ccc(CC2=NCCN2)c(-c2cccnc2)c1 [Compound 19] | > 1 |  | > 61 | 
18 | CCc1cc(C(F)(F)F)ccc1CC1=NCCN1 [Compound 78] | < 0.00977 | > 61 |  | 

Row | Structure (SMILES) | EC50 [1] [µM] | Emax [%] | Emax [2] [%] | EC50 [µM]
19 | Clc1ccc(CC2=NCCN2)c(-n2cccn2)c1 [Compound 21] | 0.01 to 0.977 |  | > 61 | 
20 | Cc1csc(-c2cccc(CC3=NCCN3)c2C)n1 [Compound 8] | > 1 |  | < 20 | 
21 | Cc1ccc(OC(F)(F)F)cc1CC1=NCCN1 [Compound 165] |  | > 61 |  | 0.01 to 0.977
22 | C[C@@H](O)c1ccc(CC2=NCCN2)c(Cl)c1 [Compound 164] | < 0.00977 |  | > 61 | 
23 | CCc1cc(S(C)(=O)=O)ccc1CC1=NCCN1 [Compound 113] | 0.01 to 0.977 |  | > 61 | 
24 | Clc1cc(CC2=NCCN2)ccc1-c1ccn[nH]1 [Compound 2] | > 1 |  | < 20 | 
25 | Cc1cc(Cl)cc(Cl)c1CC1=NCCN1 [Compound 125] | 0.01 to 0.977 | > 61 |  | 
26 | Cc1c(CC2=NCCN2)ccc(S(=O)(=O)C(F)(F)F)c1Cl [Compound 159] | > 1 |  | 21 to 60 | 
27 | CCC(F)(F)c1cc(Cl)ccc1CC1=NCCN1 [Compound 121] | 0.01 to 0.977 | 21 to 60 |  | 
28 | CCC(F)(F)c1c(Cl)cccc1CC1=NCCN1 [Compound 137] | 0.01 to 0.977 | 21 to 60 |  | 
29 | CCc1cc(S(=O)(=O)C(F)F)ccc1CC1=NCCN1 [Compound 112] | 0.01 to 0.977 |  | > 61 | 
30 | COc1cc(Cl)ccc1CC1=NCCN1 [Compound 40] | 0.01 to 0.977 | 21 to 60 |  | 
31 | Cc1cc(CC2=NCCN2)cc(OC(F)F)c1 [Compound 148] | 0.01 to 0.977 | > 61 |  | 
32 | Fc1ccc(CC2=NCCN2)c(C2CC2)c1 [Compound 70] | 0.01 to 0.977 | 21 to 60 |  | 
33 | CCc1c(CC2=NCCN2)ccc(S(C)(=O)=O)c1Cl [Compound 144] | > 1 |  | 21 to 60 | 
34 | Clc1ccc(CC2=NCCN2)c(-c2ccon2)c1 [Compound 104] | 0.01 to 0.977 |  | > 61 | 
35 | Cc1ccoc1-c1cc(Cl)ccc1CC1=NCCN1 [Compound 35] | < 0.00977 |  | > 61 | 
